Results taken from patent US5686424A, “2-oxoethyl derivatives as immunosuppressants” (Miles Inc., priority 1995, dated 1997).

What was measured:
NF-AT = NF-AT Inhibition Assay Directed β-Galactosidase Expression in FGL-5 cells; type: cell-based; settings: 50% inhibition of NF-AT directed β-galactosidase activity in FGL-5 cells stimulated with phorbol dibutyrate and ionomycin; TABLE 3
Method in brief: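 FGL-5 Jurkat cells (3 million cells/ml) carry NF-AT-site-driven lacZ. They were stimulated with phorbol dibutyrate plus ionomycin and incubated with compound 16-18 h at 37 °C, in duplicate wells with matched ethanol or DMSO vehicle controls. β-Galactosidase was read as fluorescence from 4-methylumbelliferyl-β-D-galactoside cleavage, giving percent inhibition.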

FKBP = FKBP (Homo sapiens, UniProt P62942); experiment: PPIase Inhibition Assay; type: biochemical; settings: concentration of inhibitor required for 50% inhibition of enzyme activity; FKBP, substrate Succinyl-Ala-Phe-Pro-Phe-para-nitroanilide; TABLE I
Method in brief: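 Rates from p-nitroaniline release at 390 nm over 90 sec, fitted first-order, were converted to % activity remaining relative to uncatalyzed and uninhibited rates, with IC50 from linear regression of V-/V+ against inhibitor level. FKBP acted on Suc-Ala-Phe-Pro-Phe-pNA with excess chymotrypsin, HEPES pH 7.8, cold buffer.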

Chain of FKBP (P62942 whole entry): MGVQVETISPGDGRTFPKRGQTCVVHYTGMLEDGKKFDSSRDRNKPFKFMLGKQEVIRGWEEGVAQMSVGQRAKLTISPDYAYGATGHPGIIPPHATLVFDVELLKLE

SMILES	IC50 (NF-AT) [µM]	IC50 (FKBP) [µM]
CC[C@H](C)[C@H](NC(=O)[C@@H]1CCCN1CC(=O)O[C@H](c1ccccc1)C(C)C)C(=O)NCc1ccccc1 [Example 92, L-Isoleucine, N-[1-(2-(2-Methyl-1-(S)-Phenyl-1-Propoxy)-2-Oxoethyl)-L-Prolyl] Benzylamide]	44	0.6
CC[C@H](C)[C@H](NC(=O)[C@@H]1CCCN1CC(=O)C1CC2CC(C1C)C2(C)C)C(=O)NCc1ccccc1 (stereo partly drawn) [Example 41, L-Isoleucine, N-[1-[2-(2,6,6-Trimethyl-Bicyclo[3.1.1]hept-3-yl)-2-Oxoethyl]-L-Prolyl] Benzylamide]	13	< 5
CC[C@H](C)[C@H](NC(=O)[C@@H]1CCCN1CC(=O)NC1C2CC3CC(C2)CC1C3)C(=O)NCc1ccccc1 (stereo partly drawn) [Example 90, L-Isoleucine, N-[1-(Adamantan-2-ylcarbamoylmethyl)-L-Prolyl] Benzylamide]	> 100	< 5
CC[C@H](C)[C@H](NC(=O)[C@@H]1CCCN1CC(=O)C12CC3CC(CC(C3)C1)C2)C(=O)N[C@H](C)c1ccccc1 [Example 66, L-Isoleucine, N-[1-(2-Adamantan-1-yl-2-Oxoethyl)-L-Prolyl] alpha-(R)-methylbenzylamide]	57	0.1
O=C(NCc1ccccc1)[C@H](COCc1ccccc1)NC(=O)[C@@H]1CCCN1CC(=O)C12CC3CC(CC(C3)C1)C2 [Example 62, L-Serine-(O-Benzyl Ether), N-[1-(2-Adamantan-1-yl-2-Oxoethyl)-L-Prolyl] Benzylamide]	13	1.3
CC[C@H](C)[C@H](NC(=O)[C@@H]1CCCN1CC(=O)NC12CC3CC(CC(C3)C1)C2)C(=O)NCc1ccccc1 [Example 39, L-Isoleucine, N-[1-(2-Aminoadamant-1-yl-2-oxoethyl)-L-Prolyl] Benzylamide]	41	15
O=C(CC(NC(=O)[C@@H]1CCCN1CC(=O)C12CC3CC(CC(C3)C1)C2)c1ccccc1)NCc1ccccc1 (stereo partly drawn) [Example 63, L-β-Phenylalanine, N-[1-(2-Adamantan-1-yl-2-Oxoethyl)-L-Prolyl] Benzylamide]	20	0.3
CC[C@H](C)[C@H](NC(=O)[C@@H]1CCCN1CC(=O)O[C@@H](c1ccccc1)C(C)C)C(=O)NCc1ccccc1 [Example 93, L-Isoleucine, N-[1-(2-(2-Methyl-1-(R)-Phenyl-1-Propoxy)-2-Oxoethyl)-L-Prolyl] Benzylamide]	19	1.2
